Measured values: patent publication US12702654B2, “Compositions and methods for treating homocystinuria and other conditions using polyamines” (THE REGENTS OF THE UNIVERSITY OF COLORADO, priority 2020, dated 2026)
“Also recorded” adds a separate entry of the source.

Experiments:
HO HCU mice [1] = experiment: Plasma metabolite levels (tHcy, methionine cycle amino acids, SAM, SAH) in HO HCU mice; type: in vivo, mouse
Description: It is noted that WT mice (n=6) include untreated controls. HO HCU mice (N=8, 4 of each sex in each group) were either untreated or treated with about 3.0% (w/v) glycine w/v or about 3.0% (w/v) serine given in drinking water supplied ad libitum for one week. Plasma samples were taken and Hcy and cysteine levels were determined. *** denotes a P value <0.0001.
In accordance with these methods, HO HCU mice (N=8, 4 of each sex in each group) were treated with either about 3.0% glycine w/v or about 3.0% w/v serine given in drinking water supplied ad libitum for one week in the presence and absence of about 3.0% w/v betaine. Plasma samples were taken from the mice at various times and Hcy levels were determined.
Plasma Hcy levels were determined from HO HCU mice (n=8 per group) in the presence and absence of either about 5.0% w/v sodium formate alone or in combination with about 3.0% betaine given in drinking water given ad libitum.
In one exemplary method, mice were given zinc in drinking water. For this example, 8 HO HCU mice were provided drinking water supplemented with zinc (e.g. 0.05% w/v Zinc sulfate) given ad libitum for one week.
In another exemplary method, the transsulfuration pathway and methionine-folate cycle pathways, as show in the sematic illustrated in FIG. 18A, were assessed. In brief, three experimental groups (n=8 for each group) of male mice consisting of either untreated WT controls or HO HCU mice in the presence or absence of betaine treatment. Betaine was administered by dissolving the compound in drinking water at 30 g/l and was supplied ad libitum to the mice for one week. Treatment water was replenished twice per week.
A comparative reference data set was generated for these mice by examining plasma levels of tHcy, methionine, cysteine, serine, glycine, dimethylglycine, methylglycine (MG, SAM and SAH). In brief, determination of plasma levels of amino acids relevant to the methionine cycle were determined using methods similar to those described in Stabler et al., Blood. 81 (1993) 3404-3413, incorporated in its entirety herein. Determination of hepatic 5-methylTHF was performed by liquid chromatography-tandem mass spectrometry using methods similar to those described in Witham et al., PLoS One. 8 (2013) e77923, incorporated in its entirety herein. The global metabolomic analysis of methionine and folate cycle related metabolites was carried out by Metabolon, Inc. Briefly, sample preparation was performed utilizing the automated MicroLab STAR® system. Sample preparation was performed using a proprietary series of organic and aqueous extractions to remove the protein fraction while allowing maximum recovery of small molecules. The resulting extract was divided into two fractions: one for analysis by liquid chromatography and one for analysis by gas chromatography. Each sample was then frozen and dried under vacuum. The LC/mass spectrometer portion of the platform was based on a Waters ACQUITY UPLC and a Thermo-Finnigan LTQ mass spectrometer, which consisted of an electrospray ionization source and linear ion-trap mass analyzer. Samples were analyzed on a Thermo-Finnigan Trace DSQ fast-scanning single-quadrupole mass spectrometer using electron impact ionization. Identification of known chemical entities was based on comparison to library entries of authenticated standards. Tissue polyamines putrescine, spermidine and spermine and 5-methylthioadenosine (MTA) were determined by liquid chromatography-tandem mass spectrometry using methods similar to those described in Stevens et al., J Chromatogr A 1217 (2010) 3282-3288, incorporated in its entirety herein.

SHMT2 = experiment: Western blotting of hepatic SHMT2 expression; type: in vivo, mouse; conditions: HO mice, 30 g/l in drinking water ad libitum, one week
Description: (§1) To investigate the effects of these treatments upon the hepatic regulatory changes in enzyme expression induced by HCU, the human transgenic HO mouse model of HCU was used. In brief, experimental groups consisting of 8 HO mice on a C57BL/6J background and 8 C57BL/6J WT littermate control mice bred in house were used. Mice in both groups were male and aged between 3 and 4 months. Except where otherwise stated, all mice were maintained on standard chow. All diets were administered using a paired-feeding design to ensure isocaloric intake between all experimental groups and body weights were measured once per week. There was no significant difference in body weight between mice in any of the experimental groups. Betaine and taurine were in this example, both administered by dissolving these compounds in drinking water at 30 g/l ([…] 3% w/v) and were supplied ad libitum for one week. Treatment water was replenished twice per week.
Western blotting analysis of SAHH, MTHFR and SHMT2 expression was performed in liver samples from HO mice in the presence and absence of betaine or taurine treatment.

GNMT = experiment: Western blotting of hepatic GNMT expression; type: in vivo, mouse; conditions: HO HCU mice, 30 g/l in drinking water ad libitum, one week
Description: as §1
These observations are the first to report betaine and taurine acting to regulate expression of these processes. Therefore, this observation supports that taurine alone or in combination with betaine and other treatments for genetic homocystinuria are viable options for avoiding dietary restraints and treating these conditions.

HO HCU mice [2] = experiment: Tail bleeding time / hypercoagulative phenotype in HO HCU mice; type: in vivo, mouse
Description: In another exemplary method, effect of polyamines (e.g. spermidine and spermine) on the hypercoagulative phenotype induced by HCU was assessed which is a measure of treatment for genetic HCU where rapid coagulation is a side effect of these conditions. In brief, mice containing both the human CBS transgene and no functional copy of the mouse equivalent gene were identified by PCR from the litters of progeny of 11181×MKO^+/− F1 mice backcrossed to MKO^+/− mice. These mice were designated as “human only” (HO) mice and used as a human model of HCU. […] In order to further investigate the possible therapeutic potential of polyamine (e.g. spermidine and spermine) therapy in HCU, WT and HO HCU mice were given either: […]; […] in drinking water given ad libitum; or drinking water (untreated, control). After one week, tail bleeding times were determined for untreated wild type (WT) control B6 mice and HO HCU mice from all treatment groups.

HO HCU mice [3] = conditions: earlier study, cited from earlier work
[4] = HO HCU mice, betaine 30 g/l in drinking water, one week
[5] = HO model, betaine treatment, P<0.0001

In the case of `C[N+](C)(C)CC(=O)O` [betaine, N,N,N-trimethylglycine], the “increase of plasma Met compared to untreated HCU mice” value (HO HCU mice [1]; [4]) is reported as 3 fold, the “plasma DMG” value (HO HCU mice [1]; [4]) is reported as “strongly increased” and the “plasma MG” value (HO HCU mice [1]; [4]) is reported as “strongly increased”. For the same molecule, the “plasma SAH” value (HO HCU mice [1]; [4]) was “significantly decreased, but not normalized”, the “plasma SAM” value (HO HCU mice [1]; [4]) was “significantly decreased, but not normalized” and the plasma glycine (HO HCU mice [1]; [4]) was “did not change significantly”. For the same molecule, the plasma serine (HO HCU mice [1]; [4]) was “did not change significantly”, the “decrease in plasma tHcy” value (HO HCU mice [1]; HO HCU mice, betaine 30 g/l in drinking water, one week, P<0.0001) was ~60% and the “depletion of plasma total cysteine” value (HO HCU mice [1]; HO HCU mice, betaine 30 g/l in drinking water, one week, remained lower than WT) was “significantly ameliorated”. The “decrease in AdoHcy levels” value (HO HCU mice [1]; [5]) was “fivefold decrease”, the “plasma DMG” value (HO HCU mice [1]; [5]) was “increase” and the “plasma MG” value (HO HCU mice [1]; [5]) was “increase”. For the same molecule, the plasma cysteine (HO HCU mice [1]; [5]) was “increase”, the plasma methionine (HO HCU mice [1]; [5]) was “increase” and the “decrease in plasma AdoMet” value (HO HCU mice [1]; HO model, betaine treatment, P=0.0039) was 40%. The “reduction of Hcy levels by standard treatment alone” value (HO HCU mice [1]; betaine alone, as previously observed) was 15-25%, the “HCU-induced repression of hepatic SHMT2” value (SHMT2) was “completely reversed” and the “hepatic GNMT expression” value (GNMT) was “induced expression”. The hypercoagulative phenotype (HO HCU mice [2]; betaine treatment (one week)) was “significant amelioration of the hypercoagulative phenotype; also recorded: responded to betaine treatment”, the coagulation phenotype (HO HCU mice [2]; prolonged betaine treatment) was “reversion to a hypercoagulative phenotype” and the “total homocysteine levels after a longer period of treatment” value (HO HCU mice [3]; HCU mice, longer period of betaine treatment) was “greater than 100 μM”. The plasma homocysteine (HO HCU mice [3]; mouse model of HCU, betaine treatment) was “below 100 μM”.
